Experimental data taken from US9102638B2, “Amidobenzothiazoles and process for the preparation thereof” (COUNCIL OF SCIENTIFIC & INDUSTRIAL RESEARCH, priority 2011, dated 2015).

How the values were obtained:
Format in all cases: cell-based
OVCAR-8 = assay: In vitro cytotoxicity, NCI screen: OVCAR-8 (Ovarian); conditions: Homo sapiens; OVCAR-8, Ovarian panel, NCI protocol; read-out: GI50 values (μM conc.)
Experimental: (§1) The in vitro anticancer activity studies for these amidobenzothiazoles were carried out at the National Cancer Institute, Maryland, USA.
(§2) The amidobenzothiazoles have been tested against sixty human tumor cell lines derived from nine cancer types (leukemia cancer cell line, non-small cell lung cancer cell line, colon cancer cell line, CNS cancer cell line, melanoma cancer cell line, ovarian cancer cell line, renal cancer cell line, prostate cancer cell line and breast cancer cell lines). For these compounds results are expressed in GI50 values of that particular cancer cell at micro molar (μM) concentration as per NCI protocol.

SF-268 = assay: In vitro cytotoxicity, NCI screen: SF-268 (CNS); conditions: Homo sapiens, read-out: GI50 values (μM conc.)
Experimental: as §1, §2

U251 = assay: In vitro cytotoxicity, NCI screen: U251 (CNS); conditions: Homo sapiens, U-251; U251, CNS panel, NCI protocol; read-out: GI50 values (μM conc.)
Experimental: as §1, §2

[1] = tested on: prostate cancer cell lines; assay: In vitro activity against prostate cancer cell lines (panel range); conditions: Homo sapiens, read-out: GI50 values, range over the listed compounds and the panel
Experimental: as §1, §2

T-47D = assay: In vitro cytotoxicity, NCI screen: T-47D (Breast); conditions: Homo sapiens, T47D, Breast panel, NCI protocol, read-out: GI50 values (μM conc.)
Experimental: as §1, §2

HCT-15 = assay: In vitro cytotoxicity, NCI screen: HCT-15 (Colon); conditions: Homo sapiens; HCT-15, Colon panel, NCI protocol; read-out: GI50 values (μM conc.)
Experimental: as §1, §2

IGROV1 = assay: In vitro cytotoxicity, NCI screen: IGROV1 (Ovarian); conditions: Homo sapiens, IGROV-1; IGROV1, Ovarian panel, NCI protocol; read-out: GI50 values (μM conc.)
Experimental: as §1, §2

HOP-62 = assay: In vitro cytotoxicity, NCI screen: HOP-62 (Non-small cell lung); conditions: Homo sapiens; HOP-62, Non-small cell lung panel, NCI protocol; read-out: GI50 values (μM conc.)
Experimental: as §1, §2

SF-295 = assay: In vitro cytotoxicity, NCI screen: SF-295 (CNS); conditions: Homo sapiens; SF-295, CNS panel, NCI protocol; read-out: GI50 values (μM conc.)
Experimental: as §1, §2

OVCAR-5 = assay: In vitro cytotoxicity, NCI screen: OVCAR-5 (Ovarian); conditions: Homo sapiens; OVCAR-5, Ovarian panel, NCI protocol; read-out: GI50 values (μM conc.)
Experimental: as §1, §2

MDA-MB-231/ATCC = assay: In vitro cytotoxicity, NCI screen: MDA-MB-231/ATCC (Breast); conditions: Homo sapiens, Breast panel, NCI protocol, read-out: GI50 values (μM conc.)
Experimental: as §1, §2

SK-OV-3 = assay: In vitro cytotoxicity, NCI screen: SK-OV-3 (Ovarian); conditions: Homo sapiens; SK-OV-3, Ovarian panel, NCI protocol; read-out: GI50 values (μM conc.)
Experimental: as §1, §2

A549/ATCC = assay: In vitro cytotoxicity, NCI screen: A549/ATCC (Non-small cell lung); conditions: Homo sapiens, Non-small cell lung panel, NCI protocol, read-out: GI50 values (μM conc.)
Experimental: as §1, §2

RPMI-8226 = assay: In vitro cytotoxicity, NCI screen: RPMI-8226 (Leukemia); conditions: Homo sapiens; RPMI-8226, Leukemia panel, NCI protocol; read-out: GI50 values (μM conc.)
Experimental: as §1, §2

NCI/ADR-RES = assay: In vitro cytotoxicity, NCI screen: NCI/ADR-RES (Ovarian); conditions: Homo sapiens, Ovarian panel, NCI protocol, read-out: GI50 values (μM conc.)
Experimental: as §1, §2

CNS cancer cell lines = assay: In vitro activity against CNS cancer cell lines (panel range); conditions: Homo sapiens, read-out: GI50 values, range over the listed compounds and the panel
Experimental: as §1, §2

786-0 = assay: In vitro cytotoxicity, NCI screen: 786-0 (Renal); conditions: Homo sapiens; 786-0, Renal panel, NCI protocol; read-out: GI50 values (μM conc.)
Experimental: as §1, §2

NCI-H226 = assay: In vitro cytotoxicity, NCI screen: NCI-H226 (Non-small cell lung); conditions: Homo sapiens; NCI-H226, Non-small cell lung panel, NCI protocol; read-out: GI50 values (μM conc.)
Experimental: as §1, §2

UACC-257 = assay: In vitro cytotoxicity, NCI screen: UACC-257 (Melanoma); conditions: Homo sapiens; UACC-257, Melanoma panel, NCI protocol; read-out: GI50 values (μM conc.)
Experimental: as §1, §2

HCC-2998 = assay: In vitro cytotoxicity, NCI screen: HCC-2998 (Colon); conditions: Homo sapiens; HCC-2998, Colon panel, NCI protocol; read-out: GI50 values (μM conc.)
Experimental: as §1, §2

SW-620 = assay: In vitro cytotoxicity, NCI screen: SW-620 (Colon); conditions: Homo sapiens; SW-620, Colon panel, NCI protocol; read-out: GI50 values (μM conc.)
Experimental: as §1, §2

SF-539 = assay: In vitro cytotoxicity, NCI screen: SF-539 (CNS); conditions: Homo sapiens, read-out: GI50 values (μM conc.)
Experimental: as §1, §2

EKVX = assay: In vitro cytotoxicity, NCI screen: EKVX (Non-small cell lung); conditions: Homo sapiens, Non-small cell lung panel, NCI protocol, read-out: GI50 values (μM conc.)
Experimental: as §1, §2

NCI-H23 = assay: In vitro cytotoxicity, NCI screen: NCI-H23 (Non-small cell lung); conditions: Homo sapiens; NCI-H23, Non-small cell lung panel, NCI protocol; read-out: GI50 values (μM conc.)
Experimental: as §1, §2

MALME-3M = assay: In vitro cytotoxicity, NCI screen: MALME-3M (Melanoma); conditions: Homo sapiens, Melanoma panel, NCI protocol, read-out: GI50 values (μM conc.)
Experimental: as §1, §2

A498 = assay: In vitro cytotoxicity, NCI screen: A498 (Renal); conditions: Homo sapiens; A498, Renal panel, NCI protocol; read-out: GI50 values (μM conc.)
Experimental: as §1, §2

CCRF-CEM = assay: In vitro cytotoxicity, NCI sixty cell line screen: CCRF-CEM (Leukemia); conditions: Homo sapiens, Leukemia panel, NCI protocol, read-out: GI50 values (μM conc.)
Experimental: as §1, §2

M14 = assay: In vitro cytotoxicity, NCI screen: M14 (Melanoma); conditions: Homo sapiens; M14, Melanoma panel, NCI protocol; read-out: GI50 values (μM conc.)
Experimental: as §1, §2

SK-MEL-2 = assay: In vitro cytotoxicity, NCI screen: SK-MEL-2 (Melanoma); conditions: Homo sapiens; SK-MEL-2, Melanoma panel, NCI protocol; read-out: GI50 values (μM conc.)
Experimental: as §1, §2

K-562 = assay: In vitro cytotoxicity, NCI screen: K-562 (Leukemia); conditions: Homo sapiens, K562; read-out: GI50 values (μM conc.)
Experimental: as §1, §2

KM12 = assay: In vitro cytotoxicity, NCI screen: KM12 (Colon); conditions: Homo sapiens; KM12, Colon panel, NCI protocol; read-out: GI50 values (μM conc.)
Experimental: as §1, §2

NCI-H460 = assay: In vitro cytotoxicity, NCI screen: NCI-H460 (Non-small cell lung); conditions: Homo sapiens; NCI-H460, Non-small cell lung panel, NCI protocol; read-out: GI50 values (μM conc.)
Experimental: as §1, §2

SMILES	GI50 [1] [µM]	GI50 (CNS cancer cell lines) [µM]	GI50 (OVCAR-8) [µM]	GI50 (SF-268) [µM]	GI50 (U251) [µM]	GI50 (T-47D) [µM]	GI50 (HCT-15) [µM]	GI50 (IGROV1) [µM]	GI50 (SF-295) [µM]	GI50 (MDA-MB-231/ATCC) [µM]	GI50 (SK-OV-3) [µM]	GI50 (A549/ATCC) [µM]	GI50 (RPMI-8226) [µM]	GI50 (NCI/ADR-RES) [µM]	GI50 (786-0) [µM]	GI50 (NCI-H226) [µM]	GI50 (UACC-257) [µM]	GI50 (HCC-2998) [µM]	GI50 (SF-539) [µM]	GI50 (EKVX) [µM]	also measured
COc1ccc(C2CC(c3cc(OC)c(OC)c(OC)c3)=NN2C(C)=O)cc1OCC(=O)Nc1nc2ccc(C(F)(F)F)cc2s1 (stereo not drawn) [Compound 10i, N1-(6-(trifluoromethyl)-1,3-benzothiazol-2-yl)-2-{5-[1-acetyl-3-(3,4,5-trimethoxyphenyl)-4,5-dihydro-1H-5-pyrazolyl]-2-methoxyphenoxy}acetamide]	0.18 to 22.9	0.045 to 18.8	3.36	3.84	3.08	2.75	9.26	5.3	3.06	3.11	5.75	2.16	2.21	3.13	3.58	2.22	3.77	> 100	1.75	4.1	GI50 (HOP-62): 2.2 µM; GI50 (OVCAR-5): 28.2 µM; GI50 (SW-620): > 100 µM; GI50 (NCI-H23): 3.76 µM; GI50 (MALME-3M): 6.44 µM; GI50 (A498): 2.78 µM
COc1ccc(/C=C\c2cc(OC)c(OC)c(OC)c2)cc1OCC(=O)Nc1nc2ccc(C(F)(F)F)cc2s1 [Compound 8i, N1-(6-(trifluoromethyl)-1,3-benzothiazol-2-yl)-2-{2-methoxy-5-[(Z)-2-(3,4,5-trimethoxyphenyl)-1-ethenyl]phenoxy}acetamide]	0.18 to 22.9	0.045 to 18.8	3.86	3.85	3.67	4.79	3.24	4.48	3.36	3.38	3.29	4.46	5.48	2.12	6.96	3.17	40	4.23	2.66	6.25	GI50 (CCRF-CEM): 4.27 µM; GI50 (HOP-62): 5.22 µM; GI50 (OVCAR-5): 5.98 µM; GI50 (M14): 3.58 µM; GI50 (SK-MEL-2): 3.98 µM; GI50 (K-562): 3.3 µM; GI50 (SW-620): 4.65 µM; GI50 (KM12): 3.14 µM; GI50 (NCI-H460): 3.55 µM; GI50 (NCI-H23): 3.9 µM; GI50 (MALME-3M): > 100 µM; GI50 (A498): 2.81 µM
COc1ccc(/C=C\c2cc(OC)c(OC)c(OC)c2)cc1OCC(=O)Nc1nc2ccc(OC(F)(F)F)cc2s1 [Compound 8j, N1-(6-(trifluoromethoxy)-1,3-benzothiazol-2-yl)-2-{2-methoxy-5-[(Z)-2-(3,4,5-trimethoxyphenyl)-1-ethenyl]phenoxy}acetamide]	0.18 to 22.9	0.045 to 18.8	5	6.01	3.37	3.95	3.23	5.64	3.7	5.16	8.42	6	5.83	2.7	54.3	4.3	89.2	17.1	2.28	7.89	GI50 (CCRF-CEM): 4.12 µM; GI50 (HOP-62): 7.09 µM; GI50 (OVCAR-5): 3.12 µM; GI50 (M14): 4.36 µM; GI50 (SK-MEL-2): 3.29 µM; GI50 (K-562): 3.43 µM; GI50 (SW-620): 5.65 µM; GI50 (KM12): 4.48 µM; GI50 (NCI-H460): 4.11 µM; GI50 (NCI-H23): 4.39 µM; GI50 (A498): 3.61 µM

Continued, in another order:

GI50 [1] [µM]	GI50 (CNS cancer cell lines) [µM]	SMILES	GI50 (OVCAR-8) [µM]	GI50 (SF-268) [µM]	GI50 (U251) [µM]	GI50 (T-47D) [µM]	GI50 (HCT-15) [µM]	GI50 (IGROV1) [µM]	GI50 (SF-295) [µM]	GI50 (MDA-MB-231/ATCC) [µM]	GI50 (SK-OV-3) [µM]	GI50 (A549/ATCC) [µM]	GI50 (RPMI-8226) [µM]	GI50 (NCI/ADR-RES) [µM]	GI50 (786-0) [µM]	GI50 (NCI-H226) [µM]	GI50 (UACC-257) [µM]	GI50 (HCC-2998) [µM]	GI50 (SF-539) [µM]	GI50 (EKVX) [µM]	also measured
0.18 to 22.9	0.045 to 18.8	COc1ccc(/C=C\c2cc(OC)c(OC)c(OC)c2)cc1OCC(=O)Nc1nc2ccccc2s1 [Compound 8a, N1-(1,3-benzothiazol-2-yl)-2-{2-methoxy-5-[(Z)-2-(3,4,5-trimethoxyphenyl)-1-ethenyl]phenoxy}acetamide]	0.25	0.18	0.048	1	0.048	0.21	0.22	0.19	0.34	0.34	0.15	0.033	7.3	0.27	11	0.37	0.045	0.038	GI50 (CCRF-CEM): 0.078 µM; GI50 (M14): 0.072 µM; GI50 (SK-MEL-2): 0.18 µM; GI50 (K-562): 0.042 µM; GI50 (KM12): 0.058 µM; GI50 (NCI-H460): 0.052 µM; GI50 (NCI-H23): 0.11 µM; GI50 (MALME-3M): 1.99 µM; GI50 (A498): 0.36 µM
0.18 to 22.9	0.045 to 18.8	COc1ccc(/C=C/C(=O)c2cc(OC)c(OC)c(OC)c2)cc1OCC(=O)Nc1nc2ccc(OC(F)(F)F)cc2s1 [Compound 9j, N1-(6-(trifluoromethoxy)-1,3-benzothiazol-2-yl)-2-{2-methoxy-5-[(E)-3-oxo-3-(3,4,5-trimethoxyphenyl)-1-propenyl]phenoxy}acetamide]	1.54	1.2	0.7	3.08	0.4	2.54	2.21	2.01	2.16	1.99	2.02	0.49	2.26	3.35	8.08	6.18	0.29	5.11	GI50 (CCRF-CEM): 2.5 µM; GI50 (HOP-62): 2.12 µM; GI50 (OVCAR-5): 4.76 µM; GI50 (M14): 1.72 µM; GI50 (SK-MEL-2): 4.97 µM; GI50 (K-562): 0.43 µM; GI50 (SW-620): 1.08 µM; GI50 (KM12): 1.51 µM; GI50 (NCI-H460): 2.43 µM; GI50 (NCI-H23): 2.15 µM; GI50 (MALME-3M): 2.69 µM; GI50 (A498): 7.4 µM
